Laboratory results as given in PMC4368485 (Neuron, 2015).

What was measured:
[1] = estimated from the literature ref Yang et al., 2003, Nicholson et al., 2007; cited from earlier work
[2] = molecular target: rat GluN1-1a/GluN2B receptors (Rattus norvegicus, UniProt P35439+Q00960); conditions: Table S6 ref Mott et al., 1998; cited from earlier work
[3] = system: horizontal locomotor activity; experiment: Locomotor activity; type: in vivo, rat; conditions: at high doses IP; rats; cumulative 2 hr
[4] = system: latency to fall; experiment: Rotorod test; type: in vivo, mouse; conditions: mice, vehicle 140±13 sec

rat GluN1-1a/GluN2B receptors, sequence (Q00960 27-1482, other chains not shown): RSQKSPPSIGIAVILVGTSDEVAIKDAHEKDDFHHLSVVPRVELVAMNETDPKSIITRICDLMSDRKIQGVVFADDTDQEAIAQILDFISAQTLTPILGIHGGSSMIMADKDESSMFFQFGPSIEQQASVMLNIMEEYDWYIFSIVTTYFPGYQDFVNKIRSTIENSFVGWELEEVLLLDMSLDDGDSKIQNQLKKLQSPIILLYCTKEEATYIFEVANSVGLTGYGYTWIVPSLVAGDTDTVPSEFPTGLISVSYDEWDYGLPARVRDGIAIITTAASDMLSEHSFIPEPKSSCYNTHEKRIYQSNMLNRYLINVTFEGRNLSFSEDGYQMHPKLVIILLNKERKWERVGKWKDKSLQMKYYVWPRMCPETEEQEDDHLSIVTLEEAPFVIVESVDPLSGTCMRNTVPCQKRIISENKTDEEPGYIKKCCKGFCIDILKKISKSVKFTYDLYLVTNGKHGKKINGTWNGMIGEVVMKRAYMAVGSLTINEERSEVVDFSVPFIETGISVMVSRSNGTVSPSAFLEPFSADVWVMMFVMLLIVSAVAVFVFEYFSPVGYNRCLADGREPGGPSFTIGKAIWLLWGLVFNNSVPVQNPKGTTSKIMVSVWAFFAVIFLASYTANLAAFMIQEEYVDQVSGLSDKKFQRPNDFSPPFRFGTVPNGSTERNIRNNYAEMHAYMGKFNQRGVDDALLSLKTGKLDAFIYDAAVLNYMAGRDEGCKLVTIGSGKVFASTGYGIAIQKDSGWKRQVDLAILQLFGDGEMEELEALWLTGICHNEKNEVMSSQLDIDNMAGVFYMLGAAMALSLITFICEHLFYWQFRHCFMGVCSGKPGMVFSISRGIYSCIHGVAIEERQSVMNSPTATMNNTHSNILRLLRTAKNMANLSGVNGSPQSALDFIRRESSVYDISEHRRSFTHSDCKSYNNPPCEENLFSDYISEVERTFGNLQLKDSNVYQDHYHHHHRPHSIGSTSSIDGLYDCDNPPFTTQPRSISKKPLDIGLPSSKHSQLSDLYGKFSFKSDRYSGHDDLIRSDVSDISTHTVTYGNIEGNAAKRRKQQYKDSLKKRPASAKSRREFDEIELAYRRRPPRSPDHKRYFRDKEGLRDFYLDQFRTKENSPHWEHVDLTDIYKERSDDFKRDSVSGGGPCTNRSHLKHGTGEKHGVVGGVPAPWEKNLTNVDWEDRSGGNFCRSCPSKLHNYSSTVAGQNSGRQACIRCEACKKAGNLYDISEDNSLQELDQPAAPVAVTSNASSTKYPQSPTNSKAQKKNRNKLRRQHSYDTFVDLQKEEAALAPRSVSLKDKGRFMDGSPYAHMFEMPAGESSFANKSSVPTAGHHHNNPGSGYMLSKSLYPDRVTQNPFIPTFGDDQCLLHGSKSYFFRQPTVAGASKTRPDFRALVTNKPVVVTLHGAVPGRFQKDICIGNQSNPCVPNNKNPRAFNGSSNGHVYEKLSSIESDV

In the case of C[C@@H]([C@@H](O)c1ccc(O)cc1)N1CCC(O)(c2ccccc2)CC1 [CP-101,606], the “therapeutic ratio (TR) for neuroprotection” value [1] is given as ~ 4 and the “pH sensitivity of inhibition” value [2] is given as “lack substantial pH sensitivity”.
With CC(C(O)c1ccc(O)cc1)N1CCC(Cc2ccccc2)CC1 (centres unmarked) [ifenprodil] the “effect on locomotor activity” value [3] was “reduced” and the “rotorod latency to fall” value ([4]; 30 mg/kg IP) was 35 ± 6 s.
With (+)MK-801 the “rotorod latency to fall” value ([4]; 0.6 mg/kg IP) was 3 ± 2 s.
